According to paper PMC7811525, “Virtual screening of potentially endocrine-disrupting chemicals against nuclear receptors and its application to identify PPARγ-bound fatty acids” (Archives of Toxicology, 2020):
Entries after “also recorded” stand apart in the source; their conditions may differ.

Legend:
[1] = biological target: T1, PPARγ ligand binding domain (204–477) (Homo sapiens, UniProt P37231); experiment: Surface plasmon resonance (SPR) analysis of fatty acid binding to immobilized PPARγ LBD; conditions: for Rmax: SPR steady-state fit, FUA: chip coupled with 12000RU; for binding to PPARγ in SPR (in words): compared with DHA and EPA; for Kd: steady-state fit, Biacore T200, chip about 6500 RU (FUA: chip coupled with 12000RU PPARγ LBD)
T1 construct: GST (N, cleaved yes); made in house; host or cells: E. coli BL21(DE3)
T1 sequence (P37231 204-477 isoform P37231-2): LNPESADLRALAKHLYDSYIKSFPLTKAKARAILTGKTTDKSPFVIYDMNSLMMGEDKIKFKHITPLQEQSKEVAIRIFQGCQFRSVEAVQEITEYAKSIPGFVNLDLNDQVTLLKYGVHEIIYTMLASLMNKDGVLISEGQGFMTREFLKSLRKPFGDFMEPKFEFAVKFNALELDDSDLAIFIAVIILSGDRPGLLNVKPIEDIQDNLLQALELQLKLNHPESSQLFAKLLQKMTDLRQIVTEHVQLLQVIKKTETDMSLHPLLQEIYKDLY
Procedure: The protein was firstly purified using a glutathione Sephararose 4B column, followed by PreScission protease cleavage to remove the GST-tag. […] The finally collected protein in 20 mM Tirs, pH8.0, 150 mM NaCl and 2 mM DTT was concentrated to 20 mg/ml. The purity was checked by SDS-PAGE and protein was stored at − 80 °C for use.
PPARγ (0.05 mg/ml) were coupled onto CM5 sensor chips according to amine coupling procedure from the manufacturer’s manual. […] A reference channel was generated at same conditions without protein injection and used as a blank control to correct the instrument or buffer artifacts. Fatty acids were dissolved in DMSO and diluted with concentration ranging from 0.78 to 50 μM, and injected at a flowrate of 40 μL/min. Each sensorgram consists of an association phase (120 s), indicating the binding of the injected compound to the protein, followed by a dissociation phase (300 s) during which the running buffer (10 mM phosphate buffer, 150 mM NaCl, 5% DMSO, 0.05% Tween 20, pH 7.4) is passed over and the bound compounds were eluted from the chip surface. The Kd was calculated by steady-state binding fitting method in Biacore T200 evaluate the software.

PPARα = test system: PPARα; design: method as in ToxCast database released in October 2015; conditions: active/inactive call; ref ToxCast database released in October 2015; cited from earlier work
GR = test system: GR; design: method as in ToxCast database released in October 2015; conditions: active/inactive call; ref ToxCast database released in October 2015; cited from earlier work
RORγ = test system: RORγ; design: method as in ToxCast database released in October 2015; conditions: active/inactive call; ref ToxCast database released in October 2015; cited from earlier work
AR = test system: AR; design: method as in ToxCast database released in October 2015; conditions: active/inactive call; ref ToxCast database released in October 2015; cited from earlier work
PR = test system: PR; design: method as in ToxCast database released in October 2015; conditions: active/inactive call; ref ToxCast database released in October 2015; cited from earlier work

CC/C=C\C/C=C\C/C=C\C/C=C\C/C=C\C/C=C\CCC(=O)O [DHA, Docosahexaenoic acid, reference compound]
Rmax [1]: 281 RU

eicosatrienoic acid [ESA]
Rmax [1]: > 10,000.00 RU | binding to PPARγ in SPR (in words) [1]: weaker binding than DHA | Kd [1]: > 10000 µM

CN1CCc2cccc3c2[C@H]1Cc1ccc(O)c(O)c1-3 [apomorphine, reference compound]
ToxCast activity against PPARα (PPARα): active

CC(C)[C@H](C(=O)O[C@H](C#N)c1cccc(Oc2ccccc2)c1)c1ccc(Cl)cc1 [Esfenvalerate]
ToxCast activity against GR (GR): active

CC(C)c1cccc(C(C)C)c1N1C(=O)c2ccc(O)cc2C1=O [5HPP-33]
ToxCast activity against RORγ (RORγ): active

CCCCCC[C@@H](O)C/C=C\CCCCCCCC(=O)O [ROA, ricinoleic acid]
Rmax [1]: > 10,000.00 RU | binding to PPARγ in SPR (in words) [1]: weaker binding than DHA | Kd [1]: > 10000 µM

CC1(C)CCC(=Cc2ccc(Cl)cc2)C1(O)Cn1cncn1 (centres unmarked) [triconazole]
ToxCast activity against AR (AR): active

CCCc1cc(C)c(CCCCCCCCCCC(=O)O)o1 [FUA, 11-(3-methyl-5-propylfuran-2-yl)undecanoic acid]
Rmax [1]: 459.3 RU | binding to PPARγ in SPR (in words) [1]: stronger binding than DHA and EPA | Kd [1]: 249 µM

CCCCCc1cc(C)c(CCCCCCCCC(=O)O)o1 [FNA, 10,13-epoxy-11-methyloctadeca-10,12-dienoic acid]
Rmax [1]: 38.55 RU | binding to PPARγ in SPR (in words) [1]: stronger binding than DHA and EPA | Kd [1]: 136 µM

CCOC(=O)C(C)OC(=O)c1cc(Oc2ccc(C(F)(F)F)cc2Cl)ccc1[N+](=O)[O-] (centres unmarked) [lactofen]
ToxCast activity against AR (AR): active

CCCCCCC1CC1CCCCCCCCCC(=O)O (centres unmarked) [PTA, Phytomonic acid]
Rmax [1]: 33.28 RU | binding to PPARγ in SPR (in words) [1]: stronger binding than DHA and EPA | Kd [1]: 103 µM

CC/C=C\C/C=C\C/C=C\C/C=C\C/C=C\CCCC(=O)O [EPA, Eicosapentaenoic acid, reference compound]
Rmax [1]: 136 RU | Kd [1]: 629 µM

Cl.N=C1C=CC(=C(c2ccc(N)cc2)c2ccc(N)cc2)C=C1 [parafuchsin]
ToxCast activity against RORγ (RORγ): active

Oc1ccc(/C=C/c2cc(O)cc(O)c2)cc1 [reservertol]
ToxCast activity against RORγ (RORγ): active

CC/C=C\C/C=C\C/C=C\C/C=C\C/C=C\CCCCCC(=O)O [DPA, docosapentaenoic acid]
Rmax [1]: 2167 RU | binding to PPARγ in SPR (in words) [1]: weaker binding than DHA; also recorded: confirmed to bind to PPARγ, weaker than DHA and EPA | Kd [1]: 3960 µM

O=C(O)CN(CC(=O)O)CC(=O)O [Nitrilotriacetic acid]
ToxCast activity against AR (AR): active

CC1(C)NC(=O)N(c2ccc([N+](=O)[O-])c(C(F)(F)F)c2)C1=O [Nilutamide]
ToxCast activity against PR (PR): active

O=C(c1ccc(O)cc1O)c1ccc(O)cc1O [tetrahydroxybenzophenone]
ToxCast activity against AR (AR): active

O=c1c(O)c(-c2ccc(O)cc2O)oc2cc(O)cc(O)c12 [morin]
ToxCast activity against PPARα (PPARα): active
